In US20040266723A1, “Antiviral agents for treatment of Flaviviridae infections” (priority 2000, published 2004):
Where two headings read alike, the source gives them in different places.

Assays:
BVDV = BVDV real time RT-PCR antiviral assay in MDBK cells; type: cell-based, Bovine viral diarrhea virus (BVDV), strain NADL; settings: for virus production / viral RNA versus negative control / max log reduction Viral Load: MDBK cells; for virus production / viral RNA versus negative control: MOI 0.02, 22 hours, real time RT-PCR; for Selectivity Index (24 hrs/24 hrs) CC50/EC90: MDBK CC50 24 hrs / antiviral EC90 24 hrs
Description: As one illustration of this method, in the case of BVDV in MDBK cells, in a first step, viral RNA is isolated from 140 μL of the cell culture supernatant by means of a commercially available column (Viral RNA extraction kit, QiaGen, CA). The viral RNA is then eluted from the column to yield a total volume of 60 μL, and subsequently amplified with a quantitative RT-PCR protocol using a suitable primer for the BVDV NADL strain. A quenched fluorescent probe molecule is hybridized to the BVDV DNA, which then undergoes exonucleolytic degradation resulting in a detectable fluorescent signal. Therefore, the RT-PCR amplified DNA was detected in real time by monitoring the presence of fluorescence signals. The TaqMan probe molecule (5′ 6-fam-[…]-tamara 3′ [Sequence ID No. 7] and primers (sense: 5′-[…]-3′ [Sequence ID No. 8]; and antisense: 5′-[…]-3′ [Sequence ID No. 9]) were designed with the aid of the Primer Express software (PE-Applied Biosystems) to be complementary to the BVDV NADL NS5B region. A total of 10 μL of RNA was analyzed in a 50 μL RT-PCR mixture. Reagents and conditions used in quantitative PCR were purchased from PE-Applied Biosystems. The standard curve that was created using the undiluted inoculum virus ranged from 6000 plaque forming units (PFU) to 0.6 PFU per RT-PCR mixture.
Maldin-Darby bovine kidney (MDBK) cells were grown and maintained in a modified eagle medium (DMEM/F12; GibcoBRL), supplemented with 10% heat inactivated horse serum at 37° C. in a humidified, 5% CO2, incubator.
Bovine viral diarrhea virus (BVDV), strain NADL, causes a cytopathogenic effect (CPE) after infection of these cells.
Cells that were not treated with a test compound were considered a negative control, while ribavirin served as a positive control. Viral RNA was extracted and analyzed by real time RT-PCR.
Controls were Ribavirin and the polyoxymetalate HPA-023 in these experiments.

MDBK cells = experiment: Cytotoxicity in MDBK cells; type: cell-based
From the text: (§1) Cytotoxicity testing can be carried out according to standard methods. MDBK, PBM, HepG2, Huh7 and Vero cells were used. […]. […] Afterwards the plates containing the dye are read at 490 nm. Each assay was done in triplicate. Such methodologies are well described and available from the manufacturer (Promega).

[1] = Cytotoxicity in MDBK cells; type: cell-based
From the text: as §1

human IMPDH = experiment: IMPDH inhibition (Ki); type: biochemical
in vitro = type: cell-based
From the text: as §1

[2] = Cytotoxicity in CEM cells; settings: human, CEM cells
IMPDH = settings: literature (WO 95/22538); cited from earlier work
[3] = renal transplanted patients, oral; cited from earlier work
[4] = Cytotoxicity in HepG2 cells; type: cell-based; settings: human
Description: Cytotoxicity testing can be carried out according to standard methods. MDBK, PBM, HepG2, Huh7 and Vero cells were used. […]. After a three day-incubation, cell viability and mitochondrial activity are measured by adding the MTS-dye (Promega), followed by a 3 hours incubation. Afterwards the plates containing the dye are read at 490 nm. Each assay was done in triplicate. Such methodologies are well described and available from the manufacturer (Promega).

PBMC = experiment: in vitro; type: cell-based; settings: 7 days
From the text: as §1

CEM = experiment: Cytotoxicity in CEM cells; settings: read-out: CEM 7 days CC50; 7 days
[5] = Toxicity of C2-MAD in Balb/c mice (body weight); type: in vivo; settings: Balb/c mice, 10, 30 and 60 mg/kg/day, ten day treatment, versus water
From the text: The results of this screening are illustrated in FIG. 4.

[6] = BVDV, 24 hrs, read-out: Antiviral (24 hrs) EC90
[7] = Bovine viral diarrhea virus isolates and strains, MDBK, 24 h, read-out: Antiviral (24 hrs) EC90
[8] = 24 hrs, read-out: MDBK (24 hrs) CC50
[9] = Table 2, 3 days, read-out: MDBK (3 Days) CC50
[10] = BVDV real time RT-PCR, after 22 hours, tested at 40 μM
[11] = Bovine viral diarrhea virus isolates and strains, MDBK, 22 h
[12] = 7 days, read-out: PBMC 7 days CC50

COc1c(C)c2c(c(O)c1C/C=C(\C)C=O)C(=O)OC2 [C4-MPAld]
EC90 (BVDV; [6]): > 100 µM
virus production / viral RNA versus negative control (BVDV): non-active
CC50 (MDBK cells): > 100 µM

COc1c(C)c2c(c(O)c1CC=O)C(=O)OC2 [C2-MPAld]
EC90 (BVDV; [6]): > 100 µM
virus production / viral RNA versus negative control (BVDV): non-active
CC50 (MDBK cells): > 100 µM

NC(=O)c1ncn([C@@H]2O[C@H](CO)[C@@H](O)[C@H]2O)c1O [Mizoribine]
EC90 (BVDV; Bovine viral diarrhea virus isolates and strains, MDBK): > 100 µM
EC90 (BVDV; [7]): > 100 µM
Selectivity Index (24 hrs/24 hrs) CC50/EC90 (BVDV): 1
virus production / viral RNA versus negative control (BVDV): non-active
CC50 at 24 h [1]: > 100 µM
CC50 at 3 days ([1]; Table 2): > 100 µM
Ki (human IMPDH; human IMPDH, read-out: Ki): 0.004 µM

N#Cc1cncc([C@@H]2O[C@H](CO)[C@@H](O)[C@H]2O)c1
melting point: 169 to 171 °C

COC(=O)CC/C(C)=C/Cc1c(O)c2c(c(C)c1OC)COC2=O [MPA-O-Me]
max log reduction Viral Load (BVDV; BVDV real time RT-PCR, after 22 hours, tested at 100 μM): 3.32 (100 μM) log
EC90 (BVDV; [6]): < 1 µM
CC50 (MDBK cells; [8]): > 100 µM
CC50 (MDBK cells; [9]): 0.4 µM
Ki (human IMPDH; Table 2, read-out: IMPDH Ki): 0.5 µM

NC(=O)c1csc(C2OC(COP(=O)(O)CP(=O)(O)OCC3OC(n4cnc5c(N)ncnc54)C(O)C3O)C(O)C2O)n1 (stereo not drawn) [β-CH2-TAD]
max log reduction Viral Load (BVDV; [10]): 0.94 (40 μM) log
EC90 (BVDV; [7]): > 100 µM
Selectivity Index (24 hrs/24 hrs) CC50/EC90 (BVDV): 1
CC50 at 24 h ([1]; bovine, MDBK cells): > 100 µM
CC50 at 3 days ([1]; bovine, MDBK cells, Table 1): 70 µM
CC50 at 3 days ([1]; bovine, MDBK cells, Table 2): 70 µM
CC50 at 7 days (in vitro): > 100 µM
Ki (human IMPDH; Table 2, read-out: IMPDH Ki): 0.11 µM
CC50 at 7 days [2]: 47.8 µM

COc1c(C)c2c(c(O)c1C/C=C(\C)CCC(=O)O)C(=O)OC2 [Mycophenolic Acid (MPA), Mycophenolic Acid]
max log reduction Viral Load (BVDV; [10]): >2 (40 μM) log
EC90 (BVDV; [11]): 1 µM
EC90 (BVDV; [7]): < 1 µM
virus production / viral RNA versus negative control (BVDV): almost complete absence of viral RNA
CC50 at 24 h ([1]; bovine, MDBK cells): > 100 µM
CC50 at 3 days ([1]; bovine, MDBK cells, Table 1): 2 µM
CC50 at 3 days ([1]; bovine, MDBK cells, Table 2): 2 µM
CC50 at 7 days (in vitro): 75.4 µM
CC50 at 7 days [2]: 0.05 µM

COc1c(C)c2c(c(O)c1C/C=C(\C)CCCOP(=O)(O)CP(=O)(O)OC[C@H]1O[C@@H](n3cnc4c(N)ncnc43)[C@H](O)[C@@H]1O)C(=O)OC2 [C6-MAD]
EC90 (BVDV; [6]): > 100 µM
virus production / viral RNA versus negative control (BVDV): non-active
CC50 (MDBK cells): > 100 µM
Ki (human IMPDH; Table 2, read-out: IMPDH Ki): 0.3 µM

COc1c(C)c2c(c(O)c1C/C=C(\C)CCC(=O)OCCN1CCOCC1)C(=O)OC2 [MMF, mycophenolate mofetil]
MPA Tmax [3]: 48 min

NC(=O)c1cccc(C2OC(CO)C(O)C2O)c1 (stereo not drawn) [Benzamide Riboside]
max log reduction Viral Load (BVDV; [10]): >2 (40 μM) log
EC90 (BVDV; [11]): 3 µM
EC90 (BVDV; [7]): 3 µM
Selectivity Index (24 hrs/24 hrs) CC50/EC90 (BVDV): 4
CC50 at 24 h ([1]; bovine, MDBK cells): 13 µM
CC50 at 3 days ([1]; bovine, MDBK cells, Table 1): 4 µM
CC50 at 3 days ([1]; bovine, MDBK cells, Table 2): 3 µM
CC50 (in vitro): < 17 µM
CC50 at 3 days ([4]; HepG2 cells): 8 µM
Ki (human IMPDH; Table 2, read-out: IMPDH Ki): 0.66 µM

NC(=O)c1csc([C@@H]2O[C@H](CO)[C@@H](O)[C@H]2O)n1 [Tiazofurin]
max log reduction Viral Load (BVDV; [10]): >2 (40 μM) log
EC90 (BVDV; [11]): 30 µM
EC90 (BVDV; [7]): 7 µM
Selectivity Index (24 hrs/24 hrs) CC50/EC90 (BVDV): 14
virus production / viral RNA versus negative control (BVDV): almost complete absence of viral RNA
CC50 at 24 h [1]: > 100 µM
CC50 at 3 days ([1]; Table 1): 25 µM
CC50 at 3 days ([1]; Table 2): 25 µM
CC50 at 7 days (in vitro; [12]): 79.5 µM
CC50 at 3 days [4]: > 100 µM
Ki (human IMPDH; Table 2, read-out: IMPDH Ki): 0.11 µM
CC50 at 7 days [2]: 73.4 µM

NC(=O)c1ncn([C@H]2O[C@@H](CO)[C@H](O)[C@@H]2O)n1 [L-Ribavirin]
EC90 (BVDV; [6]): > 100 µM
CC50 (MDBK cells; [8]): > 100 µM
CC50 (MDBK cells; [9]): > 100 µM

NC(=O)c1cncc([C@H]2O[C@H](CO)[C@@H](O)[C@H]2O)c1
melting point: 210 to 212 °C

Nc1nc2c(ncn2[C@@H]2O[C@H](CO)[C@@H](O)[C@H]2O)c(=O)[nH]1 [guanosine]
virus production / viral RNA versus negative control (BVDV): non-active

COc1c(C)c2c(c(O)c1CCO)C(=O)OC2 [C2-MPAlcohol, 6-(2-hydroxyethyl)-7-hydroxy-5-methoxy-4-methylphthalan-1-one]
max log reduction Viral Load (BVDV; [10]): 1.96 (40 μM) log
EC90 (BVDV; BVDV real time RT-PCR, after 22 hours, 1-log reduction in viral production, read-out: EC90): 40 µM
EC90 (BVDV; [6]): 40 µM
CC50 (MDBK cells; [8]): > 100 µM
CC50 (MDBK cells; Table 1, 3 days, read-out: MDBK 3 days CC50): 7 µM
CC50 (MDBK cells; [9]): 7 µM
CC50 (PBMC): > 100 µM
CC50 (CEM): 91 µM

COc1c(C)c2c(c(O)c1CCOP(=O)(O)CP(=O)(O)OC[C@H]1O[C@@H](n3cnc4c(N)ncnc43)C(O)[C@H]1O)C(=O)OC2 (stereo partly drawn) [C2-MAD]
max log reduction Viral Load (BVDV; [10]): 1.9 (40 μM) log
CC50 at 24 h [1]: > 100 µM
CC50 at 3 days ([1]; Table 1): 50 µM
CC50 at 3 days ([1]; Table 2): 9 µM
CC50 at 7 days (in vitro; [12]): 45.9 µM
toxic effects: weight gain or loss (FIG. 4) [5]: does not contribute to significant weight gain or loss
CC50 at 7 days [2]: 17.7 µM

NC(=O)c1cccc([C@@H]2O[C@H](COP(=O)(O)CP(=O)(O)OCC3OC(n4cnc5c(N)ncnc54)C(F)C3O)[C@@H](O)[C@H]2O)c1 (stereo partly drawn) [F-ara-CH2-BAD]
EC90 (BVDV; [6]): > 100 µM
virus production / viral RNA versus negative control (BVDV): non-active
CC50 (MDBK cells; [8]): > 100 µM
CC50 (MDBK cells; [9]): > 100 µM
Ki (human IMPDH; Table 2, read-out: IMPDH Ki): 175 µM
